This is an account of results in patent US5529983A, “Use of small peptides in the treatment of psoriasis” (The United States of America as represented by the …, priority 1995, dated 1996).

Data set [1] in a line: Toxicity of peptide treatment in human patients. It counts as in vivo. The source says:
Toxicity. As to toxicity, the complete schedule of peptide therapeutic agents above gave negative evidence of toxicity.

The nature of data set [2]: Six-week intravenous toxicity study in hamsters. Format: in vivo. From the text: [D-ala^1 ]peptide-T-amide was given twice daily intravenously to hamsters for six weeks. […] Liver enzymes and kidney enzymes were normal after injection.
Setting [3] is: after injection twice daily intravenously for six weeks.

Each structure is given as a SMILES string.

`C[C@H](N)C(=O)N[C@@H](CO)C(=O)N[C@H](C(=O)N[C@H](C(=O)N[C@H](C(=O)N[C@@H](CC(N)=O)C(=O)N[C@@H](Cc1ccc(O)cc1)C(=O)N[C@H](C(=O)O)[C@@H](C)O)[C@@H](C)O)[C@@H](C)O)[C@@H](C)O` [Peptide T]: in data set [1] (In humans), the “toxicity in the liver or kidney” value is “no toxicity apparent”. For the same compound, the toxicity result in data set [1] (preliminary findings, blood pressure fell when the infusion rate was increased) was “non-toxic with the exception of lowering the blood pressure on one occasion”.
In the case of `C[C@@H](N)C(=O)N[C@@H](CO)C(=O)N[C@H](C(=O)N[C@H](C(=O)N[C@H](C(=O)N[C@@H](CC(N)=O)C(=O)N[C@@H](Cc1ccc(O)cc1)C(=O)N[C@H](C(N)=O)[C@@H](C)O)[C@@H](C)O)[C@@H](C)O)[C@@H](C)O` [[D-ala^1]peptide-T-amide], in data set [2] (setting [3]), the Liver enzymes result is “normal” and the kidney enzymes result is listed as “normal”. Moreover, the “histologic studies on all organs” value in data set [2] (twice daily intravenously for six weeks) is reported as “no significant difference”.
